# Assay results taken from article PMC9324412 (Viruses, 2022).
# How the values were obtained:
# [1] = system: HIV-1 pNL4-3 A128T IN mutant; assay: Late-stage single replication cycle antiviral assay, A128T IN mutant virus; type: cell-based; settings: Human immunodeficiency virus 1, TZM-bl, read-out: A128T-IC50 (antiviral activity)
# HIV-1 pNL4-3 WT = assay: Late-stage single replication cycle antiviral assay, WT virus; type: cell-based; settings: Human immunodeficiency virus 1, TZM-bl, read-out: WT-IC50 (antiviral activity)
SMILES,IC50 [1],IC50 (HIV-1 pNL4-3 WT)
Cc1nc2c(Br)cccc2c(-c2ccc3c(c2)OCCO3)c1C(OC(C)(C)C)C(=O)O (stereo not drawn) [Compound 16ba],300 ± 100 nM,600 ± 100 nM
Cc1nc2ccccc2c(-c2ccc3c(c2)OCCO3)c1C(OC(C)(C)C)C(=O)O (stereo not drawn) [Compound 2],1100 ± 200 nM,700 ± 100 nM
Cc1nc2ccc(Br)cc2c(-c2ccc3c(c2)OCCO3)c1C(OC(C)(C)C)C(=O)O (stereo not drawn) [Compound 17],10200 ± 2500 nM,300 ± 100 nM
